37 compounds from US8828992B2, “Substituted azole derivatives, pharmaceutical composition containing the derivatives, and method for treating Parkinson's disease using the same” (priority 2009, dated 2014) can be followed below.

In one test the target is T1, Monoamineoxidase B type human-derived enzyme (Homo sapiens, UniProt P27338).
T1 sequence (P27338 1-520): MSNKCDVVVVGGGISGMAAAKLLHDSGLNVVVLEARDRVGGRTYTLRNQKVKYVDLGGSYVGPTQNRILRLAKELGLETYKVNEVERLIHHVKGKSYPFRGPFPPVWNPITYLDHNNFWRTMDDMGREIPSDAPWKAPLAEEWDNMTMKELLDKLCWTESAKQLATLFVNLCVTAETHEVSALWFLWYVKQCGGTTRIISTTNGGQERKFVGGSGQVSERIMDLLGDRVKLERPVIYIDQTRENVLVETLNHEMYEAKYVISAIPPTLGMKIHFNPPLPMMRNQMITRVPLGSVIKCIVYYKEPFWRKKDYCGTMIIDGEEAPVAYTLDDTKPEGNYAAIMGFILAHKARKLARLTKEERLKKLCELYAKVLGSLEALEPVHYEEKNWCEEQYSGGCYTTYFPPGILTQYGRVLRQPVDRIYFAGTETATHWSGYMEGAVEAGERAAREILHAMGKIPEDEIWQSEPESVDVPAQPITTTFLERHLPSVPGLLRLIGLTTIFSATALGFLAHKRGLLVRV
Kind of test: Inhibitory effects on the activity of MAO-B (Amplex Red fluorescence, benzylamine substrate). Type of test: biochemical. As to conditions: read-out: Inhibitory effects (%) on the activity of MAO-B. The method, then: Monoamineoxidase A or B type human-derived enzyme (5 mg/ml) was each diluted with 0.05 M sodium phosphate buffer (pH 7.4) to yield a dilution of 1:200, and then 100 μl of an enzyme buffer containing 2 μl of a compound 1 solution at the corresponding concentration was placed in a test plate (flat-bottom) and incubated for 30 minutes.
100 μl of a working buffer containing 400 μM of Amplex Red reagent, 2 U/ml horseradish peroxidase, and 2 mM substrate (tyramine for MAO-A and benzylamine for MAO-B) in 0.05 M sodium phosphate buffer (pH 7.4) was mixed with a pre-incubated enzyme buffer at 1:1 and measured using fluorescence (EX: 563 nm & EM: 587 nm) for 30 minutes.
`CCCCCOc1ccc(-c2cc(COC(N)=O)on2)cc1` [Example 44, carbamic acid 3-(4-pentoxy-phenyl)-isoxazol-5-ylmethyl ester]: the inhibition at 0.01 µM is 74.3%.
Consider `NC(=O)OCc1cc(-c2ccc(OCC3CCCC3)cc2)no1` [Example 193, Carbamic acid 3-(4-cyclopentylmethoxy-phenyl)-isoxazol-5-ylmethyl ester], for which the inhibition at 0.01 µM was 88.1%.

The same test, now with this note: treatment concentration 10 nM.
Consider `CC(C)(C)[N+]([O-])=Cc1cccc(COc2ccc(-c3cc(COC(N)=O)on3)cc2)c1` [Example 204, carbamic acid 3-{4-[3-(t-butylnitronyl)-benzyloxy]-phenyl}-isoxazol-5-ylmethyl ester], for which the “Inhibitory effects (%) on the activity of MAO-B” value was 98.8%.
For “3-[4-(3-chloro-benzyloxy)-phenyl]-isoxazol-5-ylmethyl ester [Example 20]”, the “Inhibitory effects (%) on the activity of MAO-B” value is recorded as 96.2%.

The same test, now with this note: treatment concentration 10 nM; read-out: Inhibitory effects (%) on the activity of MAO-B.
With `NC(=O)OCc1cc(-c2ccc(OCc3cc(F)ccc3Cl)cc2)no1` [Example 25, carbamic acid 3-[4-(2-chloro-5-fluoro-benzyloxy)-phenyl]-isoxazol-5-ylmethyl ester], the inhibition at 0.01 µM was found to be 83.2%.
With `CC(OC(N)=O)c1cc(-c2ccc(OCc3ccccc3)cc2)no1` (stereo not shown) [Example 117, carbamic acid 1-[3-(4-benzyloxy-phenyl)-isoxazol-5-yl]-ethyl ester], the inhibition at 0.01 µM is 68.5%.
With `NC(=O)OCc1cc(-c2ccc(NCc3ccccc3F)cc2)no1` [Example 78, Carbamic acid 3-[4-(2-fluoro-benzylamino)-phenyl]-isoxazol-5-ylmethyl ester], the inhibition at 0.01 µM came out at 84.7%.
On the same count and under the same terms, the same measure for `COC(=O)c1ccc(COc2ccc(-c3cc(COC(N)=O)on3)cc2)cc1` [Example 27, 4-[4-(5-carbamoyloxymethyl-isoxazol-3-yl)-phenoxymethyl]-benzoic acid methyl ester]: 75.2%.
As to `c1ccc(COc2ccc(-c3cc(Cn4ncnn4)on3)cc2)cc1` [Example 146, 2-[3-(4-benzyloxy-phenyl)-isoxazol-5-ylmethyl]-2H-tetrazole], the inhibition at 0.01 µM came out at 86%.
Regarding `Cc1ccccc1COc1ccc(-c2cc(COC(N)=O)on2)cc1` [Example 29, carbamic acid 3-[4-(2-methyl-benzyloxy)-phenyl]-isoxazol-5-ylmethyl ester], the inhibition at 0.01 µM amounted to 80.3%.
Regarding `NC(=O)OCc1cc(-c2ccc(OCc3ccc4c(c3)OCO4)cc2)no1` [Example 203, carbamic acid 3-[4-(benzo[1,3]dioxol-5-ylmethoxy)-phenyl]-isoxazol-5-ylmethyl ester], the inhibition at 0.01 µM came out at 93%.
Still for that read-out and setting: to `NC(=O)OCc1cc(-c2ccc(OCc3cccc(C=O)c3)cc2)no1` [Example 35, carbamic acid 3-[4-(3-formyl-benzyloxy)-phenyl]-isoxazol-5-ylmethyl ester] belongs 90.4%; to `NC(=O)OCc1cc(-c2ccc(NCc3cccc(C(F)(F)F)c3)cc2)no1` [Example 96, Carbamic acid 3-[4-(3-trifluoromethyl-benzylamino)-phenyl]-isoxazol-5-ylmethyl ester], 40.9%.
Consider `NC(=O)OCCNCc1cc(-c2ccc(OCc3ccccc3)cc2)no1` [Example 177, Carbamic acid 2-{[3-(4-benzyloxy-phenyl)-isoxazol-5-ylmethyl]-amino}-ethyl ester], for which the inhibition at 0.01 µM turned out to be 31.7%.
Same read-out and setting: to `NC(=O)OCc1cc(-c2ccc(OCc3ccccc3)cc2Cl)no1` [Example 5, carbamic acid 3-(4-benzyloxy-2-chloro-phenyl)-isoxazol-5-ylmethyl ester] belongs 88.3%; to `NC(=O)OCc1cc(-c2ccc(OCc3ccccc3Cl)cc2)no1` [Example 21, carbamic acid 3-[4-(2-chloro-benzyloxy)-phenyl]-isoxazol-5-ylmethyl ester], 92.9%.
On the same count and under the same terms, the same measure for `NC(=O)C(CO)NCc1cc(-c2ccc(OCc3ccccc3)cc2)no1` (stereo not shown) [Example 167, 2-{[3-(4-benzyloxy-phenyl)-isoxazol-5-ylmethyl]-amino}-3-hydroxy-propionamide]: 21.8%; for `NC(=O)OCc1cc(-c2ccc(NCc3ccccc3Cl)cc2)no1` [Example 86, Carbamic acid 3-[4-(2-chloro-benzylamino)-phenyl]-isoxazol-5-ylmethyl ester]: 83.3%; for `c1ccc(COc2ccc(-c3cc(Cn4cncn4)on3)cc2)cc1` [Example 144, 1-[3-(4-benzyloxy-phenyl)-isoxazol-5-ylmethyl]-1H-[1,2,4]triazole]: 97.3%.
With `NC(=O)OCc1cc(-c2ccc(NCc3cc(F)ccc3F)cc2)no1` [Example 83, Carbamic acid 3-[4-(2,5-difluoro-benzylamino)-phenyl]-isoxazol-5-ylmethyl ester], the inhibition at 0.01 µM turned out to be 54.9%.
Take `NC(=O)OCc1cc(-c2ccc(NCc3ccc(Cl)cc3)cc2)no1` [Example 85, Carbamic acid 3-[4-(4-chloro-benzylamino)-phenyl]-isoxazol-5-ylmethyl ester]: the inhibition at 0.01 µM is 50.1%.
Same read-out and setting: the same measure for `NC(=O)OCCc1cc(-c2ccc(OCc3ccccc3)cc2)no1` [Example 118, carbamic acid 2-[3-(4-benzyloxy-phenyl)-isoxazol-5-yl]-ethyl ester]: 25.7%; for `C#CCN(C)Cc1cc(-c2ccc(OCc3ccccc3)cc2)no1` [Example 178, [3-(4-benzyloxy-phenyl)-isoxazol-5-ylmethyl]-methyl-prop-2-ynyl-amine]: 64%; for `Clc1ccc(COc2ccc(-c3cc(Cn4ccnc4)on3)cc2)cc1` [Example 157, 3-[4-(4-chloro-benzyloxy)-phenyl]-5-imidazol-1-ylmethyl-isoxazole]: 37.2%.
The same measure, in the same setting: the same measure for `Cc1ccccc1CNc1ccc(-c2cc(COC(N)=O)on2)cc1` [Example 99, Carbamic acid 3-[4-(2-methyl-benzylamino)-phenyl]-isoxazol-5-ylmethyl ester]: 79.7%; for `Fc1ccc(COc2ccc(-c3cc(Cn4ccnc4)on3)cc2)c(F)c1` [Example 154, 3-[4-(2,4-difluoro-benzyloxy)-phenyl]-5-imidazol-1-ylmethyl-isoxazole]: 82.7%.
The same measure, in the same setting: to `NC(=O)OC1CCN(Cc2cc(-c3ccc(OCc4ccccc4)cc3)no2)CC1` [Example 138, Carbamic acid 1-[3-(4-benzyloxy-phenyl)-isoxazol-5-ylmethyl]-piperidin-4-yl ester] belongs 39.1%; to `CC(C)c1ccc(COc2ccc(-c3cc(COC(N)=O)on3)cc2)cc1` [Example 32, Carbamic acid 3-[4-(4-isopropyl-benzyloxy)-phenyl]-isoxazol-5-ylmethyl ester], 84.4%; to `C#CCNCc1cc(-c2ccc(OCc3ccccc3)cc2)no1` [Example 119, [3-(4-benzyloxy-phenyl)-isoxazol-5-ylmethyl]-prop-2-ynyl-amine], 81.7%.
Regarding `NC(=O)OCc1cc(-c2ccc(NCc3cccc(Cl)c3Cl)cc2)no1` [Example 88, carbamic acid 3-[4-(2,3-dichloro-benzylamino)-phenyl]-isoxazol-5-ylmethyl ester], the inhibition at 0.01 µM came out at 60%.
`NC(=O)OCc1cc(-c2ccc(OCc3ccc4ccccc4n3)cc2)no1` [Example 70, Carbamic acid 3-[4-(quinolin-2-ylmethoxy)-phenyl]-isoxazol-5-ylmethyl ester]: the inhibition at 0.01 µM was determined as 27.1%.
Take `C=CCNCc1cc(-c2ccc(OCc3ccccc3)cc2)no1` [Example 176, Allyl-[3-(4-benzyloxy-phenyl)-isoxazol-5-ylmethyl]-amine]: the inhibition at 0.01 µM came out at 71.5%.
Consider `Fc1cc(F)c(COc2ccc(-c3cc(Cn4ccnc4)on3)cc2)c(F)c1` [Example 155, 5-imidazol-1-ylmethyl-3-[4-(2,4,6-trifluoro-benzyloxy)-phenyl]-isoxazole], for which the inhibition at 0.01 µM was 70.7%.
In the case of `NC(=O)OCc1cc(-c2ccc(NCc3ccc(Cl)cc3Cl)cc2)no1` [Example 89, carbamic acid 3-[4-(2,4-dichloro-benzylamino)-phenyl]-isoxazol-5-ylmethyl ester], the inhibition at 0.01 µM turned out to be 54.7%.
Turning to `NC(=O)OCc1cc(-c2ccc(NCc3cc(F)cc(F)c3)cc2)no1` [Example 82, Carbamic acid 3-[4-(3,5-difluoro-benzylamino)-phenyl]-isoxazol-5-ylmethyl ester], the inhibition at 0.01 µM is 56.5%.

Staying with this test, now noted: treatment concentration 100 nM.
Take `NC(=O)OCc1cc(-c2ccc(OCc3cccc(C(F)(F)F)c3)cc2)no1` [Example 31, Carbamic acid 3-[4-(3-trifluoromethyl-benzyloxy)-phenyl]-isoxazol-5-ylmethyl ester]: the inhibition at 0.1 µM stood at 96.2%.
Turning to `NC(=O)OCc1cc(-c2ccc(OCc3ccc(Cl)cc3Cl)cc2)no1` [Example 198, carbamic acid 3-[4-(2,4-dichlorobenzyloxy)-phenyl]-isoxazol-5-ylmethyl ester], the inhibition at 0.1 µM amounted to 95.7%.
